Source: PubChem BioAssay (NCI)
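Assay format: 96-well plates, 48-hour exposure. TGI is the concentration that stops growth completely.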

Experiments:
Experiment in all cases: NCI-60 cell line screen, 48 h
[1] = tested on: HOP-18 NSCLC
[2] = tested on: SNB-19 CNS
[3] = tested on: UO-31 renal
[4] = tested on: NCI-H460 lung
[5] = tested on: RXF 393 renal
[6] = tested on: 786-0 renal
[7] = tested on: SF-268 CNS
[8] = tested on: OVCAR-3 ovarian
[9] = tested on: CCRF-CEM leukemia
[10] = tested on: M14 melanoma
[11] = tested on: OVCAR-5 ovarian
[12] = tested on: EKVX NSCLC
[13] = tested on: SR leukemia
[14] = tested on: SK-MEL-28 melanoma
[15] = tested on: CAKI-1 renal
[16] = tested on: XF 498 CNS
[17] = tested on: UACC-257 melanoma
[18] = tested on: UACC-62 melanoma
[19] = tested on: SF-295 CNS
[20] = tested on: SK-OV-3 ovarian
[21] = tested on: NCI-H522 lung
[22] = tested on: HOP-62 NSCLC
[23] = tested on: MOLT-4 leukemia
[24] = tested on: ACHN renal
[25] = tested on: A498 renal
[26] = tested on: HT29 colon
[27] = tested on: U251 CNS
[28] = tested on: OVCAR-4 ovarian
[29] = tested on: SW-620 colon
[30] = tested on: DMS 114 small cell lung
[31] = tested on: A549 NSCLC
[32] = tested on: LXFL 529 NSCLC
[33] = tested on: SNB-78 CNS
[34] = tested on: DLD-1 colon
[35] = tested on: KM12 colon
[36] = tested on: LOX IMVI melanoma
[37] = tested on: MALME-3M melanoma
[38] = tested on: IGROV1 ovarian
[39] = tested on: M19-MEL melanoma
[40] = tested on: NCI-H23 lung
[41] = tested on: K-562 leukemia
[42] = tested on: SK-MEL-5 melanoma
[43] = tested on: SK-MEL-2 melanoma
[44] = tested on: SNB-75 CNS
[45] = tested on: HL-60(TB) leukemia
[46] = tested on: RPMI-8226 leukemia
[47] = tested on: HCT-116 colon
[48] = tested on: OVCAR-8 ovarian
[49] = tested on: DMS 273 small cell lung
[50] = tested on: COLO 205 colon
[51] = tested on: SN12C renal
[52] = tested on: KM20L2 colon
[53] = tested on: TK-10 renal
[54] = tested on: SF-539 CNS
[55] = tested on: HCC-2998 colon
[56] = tested on: HCT-15 colon
[57] = tested on: RXF-631 renal
[58] = tested on: NCI-H226 lung
[59] = tested on: HOP-92 NSCLC

## CC1=C(C(=O)Nc2ccccc2)C(c2cc(Cl)cc(Cl)c2)C(C(=O)Nc2ccccc2)=C(C)N1
[1]
  TGI: 26.6 µM
[2]
  TGI: 27.5 µM
[3]
  TGI: 26.9 µM
[4]
  TGI: 62.8 µM
[5]
  TGI: 26.3 µM
[6]
  TGI: 22.9 µM
[7]
  TGI: 15.3 µM
[8]
  TGI: 22.1 µM
[9]
  TGI: 14.9 µM
[10]
  TGI: 27.8 µM
[11]
  TGI: 39 µM
[12]
  TGI: 41.3 µM
[13]
  TGI: 12.6 µM
[14]
  TGI: 30.2 µM
[15]
  TGI: 31.6 µM
[16]
  TGI: 27.5 µM
[17]
  TGI: 27.2 µM
[18]
  TGI: 22.2 µM
[19]
  TGI: 28.8 µM
[20]
  TGI: 98.7 µM
[21]
  TGI: 13.3 µM
[22]
  TGI: 31.1 µM
[23]
  TGI: 18.1 µM
[24]
  TGI: 47.2 µM
[25]
  TGI: 43.1 µM
[26]
  TGI: 21.4 µM
[27]
  TGI: 12.9 µM
[28]
  TGI: 19.2 µM
[29]
  TGI: 25.9 µM
[30]
  TGI: 18.1 µM
[31]
  TGI: 58.8 µM
[32]
  TGI: 17.9 µM
[33]
  TGI: > 100 µM
[34]
  TGI: 20.2 µM
[35]
  TGI: 16.8 µM
[36]
  TGI: 24.6 µM
[37]
  TGI: 27.9 µM
[38]
  TGI: 41.9 µM
[39]
  TGI: 26.4 µM
[40]
  TGI: 19.1 µM
[41]
  TGI: 13.6 µM
[42]
  TGI: 27.7 µM
[43]
  TGI: 25.8 µM
[44]
  TGI: 34 µM
[45]
  TGI: 6.52 µM
[46]
  TGI: 25.2 µM
[47]
  TGI: 21.6 µM
[48]
  TGI: 43.5 µM
[49]
  TGI: 35 µM
[50]
  TGI: 31 µM
[51]
  TGI: 25.3 µM
[52]
  TGI: 35.6 µM
[53]
  TGI: 33.6 µM
[54]
  TGI: 32.8 µM
[55]
  TGI: 25.7 µM
[56]
  TGI: 18.6 µM
[57]
  TGI: 63.5 µM
[58]
  TGI: 31.6 µM

## C/C(CC(=O)Nc1ccc(NC(=O)C/C(C)=N\NC(N)=O)cc1)=N/NC(N)=O
[1]
  TGI: > 100 µM
[2]
  TGI: > 100 µM
[3]
  TGI: > 100 µM
[4]
  TGI: > 100 µM
[5]
  TGI: > 100 µM
[6]
  TGI: > 100 µM
[7]
  TGI: > 100 µM
[8]
  TGI: > 100 µM
[9]
  TGI: > 100 µM
[10]
  TGI: > 100 µM
[11]
  TGI: > 100 µM
[12]
  TGI: > 100 µM
[13]
  TGI: > 62.5 µM
[14]
  TGI: > 100 µM
[15]
  TGI: > 100 µM
[16]
  TGI: > 100 µM
[17]
  TGI: > 100 µM
[18]
  TGI: > 100 µM
[19]
  TGI: > 100 µM
[20]
  TGI: > 100 µM
[21]
  TGI: > 100 µM
[22]
  TGI: > 100 µM
[23]
  TGI: 97.8 µM
[24]
  TGI: > 100 µM
[25]
  TGI: > 100 µM
[26]
  TGI: > 100 µM
[27]
  TGI: > 100 µM
[28]
  TGI: > 100 µM
[29]
  TGI: > 100 µM
[30]
  TGI: > 53.3 µM
[31]
  TGI: > 100 µM
[32]
  TGI: > 100 µM
[33]
  TGI: > 100 µM
[34]
  TGI: > 66.6 µM
[35]
  TGI: > 100 µM
[36]
  TGI: > 60.1 µM
[37]
  TGI: > 100 µM
[38]
  TGI: > 100 µM
[39]
  TGI: > 100 µM
[40]
  TGI: > 100 µM
[41]
  TGI: > 100 µM
[42]
  TGI: > 100 µM
[43]
  TGI: > 100 µM
[44]
  TGI: > 100 µM
[59]
  TGI: > 100 µM
[45]
  TGI: > 100 µM
[46]
  TGI: 55.5 µM
[47]
  TGI: > 100 µM
[48]
  TGI: > 100 µM
[49]
  TGI: > 51.7 µM
[50]
  TGI: > 79.7 µM
[51]
  TGI: > 100 µM
[52]
  TGI: > 100 µM
[53]
  TGI: > 100 µM
[54]
  TGI: > 100 µM
[55]
  TGI: > 100 µM
[56]
  TGI: > 62.5 µM
[57]
  TGI: > 100 µM
[58]
  TGI: > 100 µM
